# In ChEMBL document CHEMBL1145699, “Bioactive Terpenoids from Octocorallia. 3. A New Eunicellin-Based Diterpenoid from the Soft Coral Cladiella sphaeroides” (J Nat Prod, 1997):
# Tested on: Artemia salina
# Experiment: Toxicity against Artemia salina at 30 ppm
# Format: organism-based
# Details: in vivo; call rule not given here
compound,measurement,value
C=C1CC[C@H](C(C)C)[C@@H]2[C@H]1[C@@H]1CC(=C)[C@@H](O)CC[C@](C)(O)[C@H]2O1 [CLADIELLISIN],Activity,Not Active
